Results as given in US20120093876A1, “Ophthalmic Formulations, Methods Of Manufacture And Methods of Normalizing Meibomian Gland Secretions” (Aciex, Inc., priority 2010, published 2012).
Structures can show the parent of a compound that is named as a salt.

Columns and labels:
[1] = Comfort of hydrophilic excipient bases; type: in vivo; settings: hydrophilic base
From the text: (§1) The purpose of this study was to investigate the feasibility of formulating Minocycline HCl in a ‘gelment’ with a medicated swab container closure. Specifically, formulation feasibility and stability with hydrophilic bases (PEG 400, propylene glycol, glycerol) investigated. Glycerin was unacceptable from a comfort perspective. […] (Following 3 weeks at 25/40, epi-minocycline was 20.7% for PEG 400 base and 2.9% for propylene glycol base.) Degradation was not detected following e-beam irradiation of Minocycline suspended in light mineral oil (single-point testing performed following irradiation—no stability evaluation).

[2] = Batch uniformity and stability of micronized and unmicronized oil and ointment formulations; type: physicochemical; settings: jetmilling or cryomilling; 2 batches of drug substance
Description: Two Minocycline HCl drug substance batches were micronized (by jetmilling and cryomilling) and evaluated for chemical properties post-micronization. Jetmilled, cryomilled, and unmicronized oil and ointment formulations were evaluated for batch uniformity and stability.
Oil formulations were 100% oil and ointments were 100% petrolatum. […]. […] evaluated with respect to solubility in light mineral oil.
[…]. The oil suspensions in this study provided consistent T0 results, unlike the earlier oil formulations with unmicronized Minocycline HCl.

[3] = Excipient compatibility stability screen, minocycline quantitated by HPLC; settings: in mineral oil, relative to castor and olive oil
[4] = Degradation after e-beam irradiation; type: physicochemical; settings: suspended in light mineral oil; single-point testing following irradiation
From the text: as §1

| Comfort [1] | Change in assay following micronization [2] | Stability (degree of epimerization) in excipient [3] | Degradation following e-beam irradiation [4] | Structure (SMILES) |
| --- | --- | --- | --- | --- |
| unacceptable |  |  |  | OCC(O)CO [Glycerin] |
|  | No change | greatest stability | not detected | CN(C)c1ccc(O)c2c1C[C@H]1C[C@H]3[C@H](N(C)C)C(O)=C(C(N)=O)C(=O)[C@@]3(O)C(O)=C1C2=O [Minocycline HCl] |
